The numbers were not newly measured in patent US12115220B2, “Oral mucosal carrier and protectant” (Inspired Material Solutions, LLC, priority 2018, dated 2024), which cites them from elsewhere.

The structures appear in SMILES notation. Like-named read-outs stand apart in the source and are kept apart here.

Setting [1] is: 10 mg CBD+10 mg THC in an oral capsule.
Setting [2] is: after buccal Sativex (10 mg THC+10 mg CBD).

With `C=C(C)[C@@H]1CCC(C)=C[C@H]1c1c(O)cc(CCCCC)cc1O` [CBD, cannabidiol], the “mean (SD) peak plasma concentration” value reads like this: under setting [1], 2.5 (2.2) μg/L; under setting [2], 3.0 (3.1) μg/L. In addition, the “Time to maximum concentration (Tmax)” value by setting is: (after buccal administration) 2.8 (1.3) h; (after oral administration) 1.3 (0.8) h.

Regarding `CCCCCc1cc(O)c2c(c1)OC(C)(C)[C@@H]1CCC(C)=C[C@@H]21` [THC, delta-9-tetrahydrocannabinol], the “mean (SD) peak plasma concentration” value was 6.4 (3.1) μg/L under setting [1] and 6.1 (5.4) μg/L under setting [2]. Where the note is “after a 20 mg dose of oral THC”, the plasma maximum concentrations is 4.4 to 11.0 µg/L. The “Time to maximum concentration (Tmax)” value is 2.4 (1.1) h (after buccal administration) and 1.0 (0.6) h (after oral administration). In addition, the bioavailability result (inhaled) is on record as “up to 27%”. Further, the “time of peak concentrations postdose” value (oral absorption) is 1 to 5 h.
